Consider 36 compounds from PubChem BioAssay AID1259420 (Broad Institute, 2018).

Values joined by “and” are separate entries in the source; they are usually repeats but may differ in a detail not shown here. Equal values may be shown once. Inconclusive results are not listed. Active and inactive are the calls of the source. The rule behind the calls is not given here.

What is called AC50 is the midpoint of the concentration-response curve, whichever way the signal moves.

This assay concerns Toxoplasma gondii growth in host cells, no IFN-gamma. Briefly: compound activity on host-cell Toxoplasma growth – dose response (AID 1259420).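 Note: host cells were HeLa; final incubation lasted 72 hours.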

For `Cc1cc(C(C)(C)CC(C)(C)C)ccc1OCCOCC[N+](C)(C)Cc1ccccc1`, the AC50 was 12.5 µM.

Consider `COc1ccccc1C(=O)Nc1ccc(-c2nc(-c3ccc(C)cc3C)co2)cc1`, for which the concentration at half-maximal activity (AC50) is 21 µM.

With `OC(c1cc(C(F)(F)F)nc2c(C(F)(F)F)cccc12)C1CCCCN1` (stereo unspecified), the AC50 is 20.4 µM.

`O=C(Nc1ccc(F)cc1)N1CC(=O)N2[C@H](CO)[C@H](c3ccc(-c4cccc(F)c4)cc3)[C@H]2C1`: the AC50 is 31.1 µM.

For the compound `O=C1CC(c2ccncc2)C2(CCN(Cc3nccs3)CC2)N1` (stereo unspecified), the AC50 is > 39 µM (inactive).

Take `CN(C)C(=O)c1ccc(-c2ccc3c(c2)[C@@H]2[C@@H](CCN2C(=O)C2CCCC2)[C@H](CO)N3C)cc1`: the half-maximal activity concentration (AC50) was 10.9 µM.

Regarding `CC(C)C#Cc1ccc([C@H]2[C@@H](CO)N3C(=O)CN(S(=O)(=O)c4ccccc4)C[C@H]23)cc1`, the AC50 was > 39 µM (inactive).

On to `N#C[C@@H]1[C@@H](c2ccc(C3=CCCCC3)cc2)[C@@H](CO)N1S(=O)(=O)c1ccccc1`, for which the AC50 was > 39 µM (inactive).

Turning to `Cc1cccc(S(=O)(=O)N2CC[C@@H]3[C@H](CO)Nc4ccc(-c5ccccc5F)cc4[C@@H]32)c1`, the concentration at half-maximal activity (AC50) is 17.2 µM.

In the case of `O=C(NC1CCCCC1)N1C[C@@H]2N[C@H](C1)C2c1ccc(-c2ccc(F)cc2)cc1` (stereo partly specified), the half-maximal activity concentration (AC50) is 23 µM.

Consider `COc1ccc(CN2CCO[C@H]3[C@H]2CC[C@H]3OCCCn2cccn2)cc1`, for which the AC50 is > 39 µM (inactive).

Take `CCCCN(C)C(=O)c1cnc(-c2noc3cc(NCC4CC4)ccc23)s1`: the AC50 was 20.4 µM.

For `Cc1ccc(S(=O)(=O)Nc2ccc3c(c2)C(=O)N([C@H](C)CO)C[C@H](C)[C@H](CN(C)Cc2ccc(C(F)(F)F)cc2)O3)cc1`, the half-maximal activity concentration (AC50) is 18.5 µM.

Take `N#Cc1cccc(-c2ccc3c(c2)[C@H]2[C@H](CCN2Cc2ccc4c(c2)OCO4)[C@H](CO)N3)c1`: the AC50 is 17.2 µM.

Turning to `CCCCCCC(C)(C)c1ccc(C2CC(O)CCC2CCCO)c(O)c1` (stereo unspecified), the AC50 is 17.9 µM.

Turning to `CCCNC(=O)N1[C@H](C#N)[C@@H](c2ccc(-c3ccccc3F)cc2)[C@H]1CO`, the AC50 is 31.9 µM.

Regarding `CCc1c(C)sc2c1CCN(Cc1nc(-c3cc(C)ccc3C)oc1C)C2c1ccccc1` (stereo unspecified), the AC50 is 16.9 µM.

As to `CC(C)(O)CC(=O)NCCn1ccc2ncnc(Nc3ccc(Oc4cccc(C(F)(F)F)c4)c(Cl)c3)c21`, the AC50 was > 39 µM (inactive).

Consider `O=C(c1cccn2c(-c3ccc(F)cc3)nnc12)N1CCC(O)(c2ccc(Cl)cc2)CC1`, for which the AC50 was > 39 µM (inactive).

Consider `COc1cccc(-c2ccc3c(c2)[C@@H]2[C@@H](CCN2C(=O)c2ccccc2F)[C@H](CO)N3C)c1`, for which the AC50 was 8.81 µM and 10.2 µM.

Regarding `O=C(NC1CCCC1)N1CCCCN2[C@H](CO)[C@H](c3ccc(-c4cccnc4)cc3)[C@H]2C1`, the half-maximal activity concentration (AC50) is 18.2 µM.

For `CC[C@]1(O)C[C@@H]2CN(CCc3c([nH]c4ccccc34)[C@@](C(=O)OC)(c3cc4c(cc3OC)N(C)[C@H]3[C@@](O)(C(=O)OC)[C@H](OC(C)=O)[C@]5(CC)C=CCN6CC[C@]43[C@@H]65)C2)C1`, the AC50 is < 0.16 µM.

Turning to `Cn1cnc(S(=O)(=O)N2CCCCN3[C@H](CO)[C@H](c4ccc(C5=CCCCC5)cc4)[C@@H]3C2)c1`, the AC50 was 23.4 µM and 22.7 µM.

In the case of `CN1C(=O)CC2C1CCN2S(=O)(=O)Cc1ccccc1` (stereo unspecified), the AC50 was > 39 µM (inactive).

For the compound `CC(C)(Cc1ccc2ccccc2c1)NC[C@@H](O)COc1cccc(Cl)c1C#N`, the AC50 is 12.3 µM.

Take `CN1c2ccc(-c3ccccc3)cc2[C@@H]2[C@@H](CCN2C(=O)CC2CC2)[C@@H]1CO`: the half-maximal activity concentration (AC50) was 25.3 µM.

Turning to `COc1cccc(C#Cc2ccc([C@@H]3[C@H](C#N)N(C(=O)c4ccccn4)[C@H]3CO)cc2)c1`, the AC50 is 19.9 µM.

For `CC(C)(C)c1ccc(S(=O)(=O)N2CCC[C@@H]2C(=O)NCCc2csc(-c3ccccc3)n2)cc1`, the AC50 was > 39 µM (inactive).

For `C[C@H](NC(=O)C[C@H]1CC[C@@H]2[C@@H](COc3ccc(NS(=O)(=O)c4ccc(Cl)cc4)cc3C(=O)N2C)O1)c1ccccc1`, the AC50 was 13.7 µM and 36.1 µM.

As for `O=C(CC1CCC2(CC1)CCN(c1ncc(F)cn1)CC2)N1CC=CC1`, the AC50 is 21.7 µM.

Regarding `O=C(Nc1cccc(F)c1)C1CC12CCN(S(=O)(=O)c1ccccc1)C2` (stereo unspecified), the AC50 was 35.5 µM.

On to `NCCCCCCCCCCNS(=O)(=O)c1cccc2c(Cl)cccc12`, for which the concentration at half-maximal activity (AC50) was 15.9 µM.

Take `COCCNC(=O)C[C@@H]1C[C@@H]2CN(Cc3ccncc3)C[C@H]2O1`: the half-maximal activity concentration (AC50) was 29 µM.

For the compound `N#Cc1ccc(-c2ccc([C@@H]3[C@@H]4CN(S(=O)(=O)Cc5ccccc5)C[C@H]3N4)cc2)cc1`, the AC50 is 9.96 µM.

As for `C[C@@H]1CN(Cc2ccc(F)cc2)CCN1C(=O)COc1ccc(Cl)cc1NC(N)=O`, the AC50 was > 39 µM (inactive).

Turning to `CN1c2ccc(-c3ccccc3)cc2[C@@H]2[C@@H](CCN2C(=O)NC2CCCCC2)[C@H]1CO`, the AC50 was 8.76 µM.
